# Marks after values point to notes of the source that are not given here.
# Tested on: male gypsy moth antenna response to pheromone (+)-1
# Test: EAG short-term (STI) and long-term (LTI) inhibition of pheromone signaling (Example 5)
# Design: species or system Lymantria dispar
# Conditions: mixed plume (+)-1 100 ng + compound 1 μg; negative = enhancement; mean ± S.E.
# Method: The puffs are numbered i-vi and were: i=air, ii=pure pheromone (+)-disparlure, (+)-1, (100 ng), iii-v=disparlure mixed with the test compound, the latter at three different doses, vi=pure (+)-1. Depolarizations from the resting potential are labeled d; hyperpolarizations seen during the recovery phase after a puff are labeled r. Subscripts refer to the puff number. FIG. 5A. Typical trace for compound 3c{2,3}. FIG. 5B. Typical trace for compound 3a{4,4}.
# For other compounds, EAG traces were recorded as follows: a fully dislodged antenna from a male gypsy moth was mounted on the end of a reference electrode (a glass capillary with a silver wire, filled with buffered saline: 5 mM NaH2PO4, 10 mM Na2SO4, 4.5 mM KHCO3, 18 mM MgCl2, 4 mM CaCl2, 6 mM KCl, the pH is adjusted to 6.8 using 5 mM Na2HPO4). The tip of the antenna was severed with microscissors and placed in the recording electrode, which was mounted on a micromanipulator. A constant stream of air, that had been purified (charcoal filter), was blown over the antenna at a rate of 300 mL/min. Test samples were delivered through a stimulus delivery tube with a side opening 2 cm from the distal opening. The proximal end of the delivery tube was connected to a controlled stimulus delivery apparatus (Stimulus controller CS-05 Syntech Research and Equipment, NL 1200BM, Hilversum, The Netherlands). The distal end of the delivery tube pointed at the antenna (1 cm from the antenna). The side opening was connected to a cartridge fashioned from a Pasteur pipette which contained a small filter paper (Whatman No. 1) with the stimulus. These pipette cartridges could be prepared a few days in advance and stored at −80° C. wrapped in Al foil and in sealable plastic bags. Sample cartridges were mounted once they had reached room temperature. The stimulus delivery apparatus delivered a second stream of air (a puff) through the Pasteur pipette at a velocity of 600 mL/min, at a specified point in time, for 0.3 s. Receptor potentials of the antennae in response to test stimuli were recorded with a Syntech IDAC probe, amplifier and interfaced board, and were analyzed with EAG Syntech Software Version 2.4 (1996). See FIG. 4 for a representative EAG trace. The EAG traces were evaluated as follows (see FIG. 5).
# The net depolarizations, d(net) (in mV), of puffs ii-vi,d(sample), (corrected for the depolarization with clean air, d(air)) d(net)=d(sample)−d(air) (Eq. 1)
# The percentage short-term inhibition for each compound (STI(compound)) of puffs iii-v, relative to the first pure pheromone puff (ii) STI(compound)=100×(d(net)(ii)−d(net)(compound))/d(net)(ii) (Eq. 2)
# c) the percentage long-term inhibition for each compound (LTI(compound)) of the pure pheromone puff that followed the last mixed puff (vi) relative to the first pure pheromone puff (ii) LTI(compound)=100×(d(net)(ii)−d(net)(vi))/d(net)(ii) (Eq. 3)
# The compounds we tested gave weak or no olfactory responses by themselves in electroantennogram (EAG) experiments. The EAG trace reflects the change in the potential across the antenna when an air puff with an odorant is passed over the antenna. To understand the agonistic or antagonistic effect of the compounds on pheromone responses by male moth antennae, four types of EAG experiment were conducted. First, the response of the antenna elicited by a stimulus of pure (+)-1 was compared to the responses elicited by blends of (+)-1 with the test compound (FIG. 5). […] This effect was termed short-term inhibition (STI). […] Second, the time decay and dose responses for LTI activities were studied. Third, the strongest inhibitors were tested for their ability to cause LTI by themselves.
# This experiment explored the agonistic or antagonistic activity of the synthetic aromatic compounds (Scheme 1 and eugenol and alkyl eugenols) with the gypsy moth pheromone (+)-1. […]
row,Structure (SMILES),Activity (%): short-term inhibition (STI)
1,COc1ccccc1O [2a{1}],26 ± 14 (13)^e %

# Same assay, conditions: mixed plume (+)-1 100 ng + compound 10 μg; negative = enhancement; mean ± S.E.
row,Structure (SMILES),Activity (%): short-term inhibition (STI)
1,COc1ccccc1O [2a{1}],−27 ± 24 (13) %

# Same assay, conditions: mixed plume (+)-1 100 ng + compound 100 μg (puff v); negative = enhancement; mean ± S.E.
row,Structure (SMILES),Activity (%): short-term inhibition (STI)
1,COc1ccccc1O [2a{1}],9 ± 11 (13) %

# Same assay, conditions: pure (+)-1 100 ng plume following mixed plume with 100 μg compound; mean ± S.E.
row,Structure (SMILES),Activity (%): long-term inhibition (LTI)
1,COc1ccccc1O [2a{1}],−13 ± 9 (13) %

# Tested on: male gypsy moth antenna
# Test: Coupled gas chromatographic-electroantennographic detection (GC-EAD)
# Design: species or system Lymantria dispar
# Conditions: EAD peak size and shape (sharp/broad)
# From the text: In GC-EAD assays, the analyte is processed by gas chromatography (GC). The column effluent is split, such that molecules of each chromatographic peak arrive simultaneously at the flame ionization detector of the GC and at an anectomized but otherwise intact insect antenna as the biological detector. This procedure detects specific compounds in the analyte that elicit an electrical potential from the antenna.
# For GC-EAD recordings, an antenna was carefully dislodged from a male moth's head, and the antennal base placed into the opening of a glass capillary electrode (0.58 mm ID×65 mm length) (A-M Systems, Inc., Carlsborg, Wash., USA) filled with saline solution. The tip of the antenna was removed by spring microscissors (Fine Science Tools Inc., North Vancouver, British Columbia, Canada) and then placed into the opening of the recording electrode mounted on a portable micromanipulator and positioned in front of a constant stream of warm air (Praxair Canada Inc., Mississauga, Ontario, Canada) which delivered the GC column eluent. […] Identical retention times of compounds detected by the flame ionization detector of the GC and by the insect antenna allowed assignment of antennal responses to specific compounds in the eluent.
row,Structure (SMILES),GC-EAD activity
1,COc1ccccc1O [2a{1}],None
2,"CCOc1ccccc1OC [3a{1,2}, 1-ethoxy-2-methoxy benzene]",++ sharp
3,"CCCOc1ccccc1OC [3a{1,3}, 1-methoxy-2-propoxy benzene]",+ sharp
4,"CCCCOc1ccccc1OC [3a{1,4}, 1-butoxy-2-methoxy benzene]",Trace
5,"COc1ccccc1OCCC(C)C [3a{1,5}, 1-methoxy-2-(3-methyl-butoxy) benzene]",+ broad
6,"C=CCOc1ccccc1OC [3a{1,6}, 1-allyloxy-2-methoxy benzene]",+ sharp
7,"CCCOc1ccccc1OCC [3a{2,3}, 1-ethoxy-2-propoxy benzene]",+ sharp
8,"CCCCOc1ccccc1OCC [3a{2,4}, 1-ethoxy-2-butoxy benzene]",++ sharp
9,"CCOc1ccccc1OCCC(C)C [3a{2,5}, 1-ethoxy-2-(3-methyl-butoxy) benzene]",++ sharp
10,"C=CCOc1ccccc1OCC [3a{2,6}, 1-allyloxy-2-ethoxy benzene]",+ broad
11,"CCCCOc1ccccc1OCCC [3a{3,4}, 1-butoxy-2-propoxy benzene]",++ sharp
12,"CCCOc1ccccc1OCCC(C)C [3a{3,5}, 1-(3-methyl-butoxy)-2-propoxy benzene]",+ broad
13,"C=CCOc1ccccc1OCCC [3a{3,6}, 1-allyloxy-2-propoxybenzene]",++ broad
14,"CCCCOc1ccccc1OCCC(C)C [3a{4,5}, 1-butoxy-2-(3-methyl-butoxy) benzene]",+ broad
15,"C=CCOc1ccccc1OCCCC [3a{4,6}, 1-allyloxy-2-butoxybenzene]",++ broad
16,"C=CCOc1ccccc1OCCC(C)C [3a{5,6}, 1-allyloxy-2-isopentoxybenzene]",+ broad
17,"CCOc1cccc(OC)c1 [3b{1,2}, 1-ethoxy-3-methoxy benzene]",Trace
18,"CCCOc1cccc(OC)c1 [3b{1,3}, 1-methoxy-3-propoxy benzene]",Trace
19,"CCCCOc1cccc(OC)c1 [3b{1,4}, 1-butoxy-3-methoxy benzene]",None
20,"COc1cccc(OCCC(C)C)c1 [3b{1,5}, 1-methoxy-3-(3-methyl-butyloxy) benzene]",None
21,"CCCOc1cccc(OCC)c1 [3b{2,3}, 1-ethoxy-3-propoxy benzene]",None
22,"CCCCOc1cccc(OCC)c1 [3b{2,4}, 1-butoxy-3-ethoxy benzene]",None
23,"CCOc1cccc(OCCC(C)C)c1 [3b{2,5}, 1-ethoxy-3-(3-methyl-butyloxy) benzene]",None
24,"CCCCOc1cccc(OCCC)c1 [3b{3,4}, 1-butoxy-3-propoxy benzene]",None
25,"CCCOc1cccc(OCCC(C)C)c1 [3b{3,5}, 1-(3-methyl-butyloxy)-3-propoxy benzene]",None
26,"CCCCOc1cccc(OCCC(C)C)c1 [3b{4,5}, 1-butoxy-3-(3-methyl-butyloxy) benzene]",None
27,"C=CCOc1ccc(OC)cc1 [3c{1,6}, 1-allyloxy-4-methoxybenzene]",Trace
28,"C=CCOc1ccc(OCC)cc1 [3c{2,6}, 1-allyloxy-4-ethoxybenzene]",Trace
29,"C=CCOc1ccc(OCCCC)cc1 [3c{4,6}, 1-allyloxy-4-butoxy benzene]",None
30,"C=CCOc1ccc(OCCC(C)C)cc1 [3c{5,6}, 1-allyloxy-4-isopentoxybenzene]",None

# Same assay, conditions: male gypsy moth antenna; starting phenols 4, diethers 5 and dihydropyrans 6c from Claisen rearrangement chemistry
row,Structure (SMILES),GC-EAD activity
1,"C=CCc1cccc(OC)c1O [4a{1}, 2-allyl-6-methoxy phenol]",++ sharp
2,"C=CCc1cccc(OCC)c1O [4a{2}, 2-allyl-6-ethoxy phenol]",+ sharp
3,"C=CCc1cccc(OCCC)c1O [4a{3}, 2-allyl-6-propoxy phenol]",+ broad
4,"C=CCc1cccc(OCCCC)c1O [4a{4}, 2-allyl-6-butoxy phenol]",Trace
5,"C=CCc1cccc(OCCC(C)C)c1O [4a{5}, 2-allyl-6-(3-methyl-butoxy) phenol]",Trace
6,"C=CCc1cc(OC)ccc1O [4c{1}, 2-allyl-4-methoxy phenol]",++ sharp
7,"C=CCc1cc(OCC)ccc1O [4c{2}, 2-allyl-4-ethoxy phenol]",+ sharp
8,"C=CCc1cc(OCCC)ccc1O [4c{3}, 2-allyl-4-propoxy phenol]",Trace
9,"C=CCc1cc(OCCCC)ccc1O [4c{4}, 2-allyl-4-butoxy phenol]",None
10,"C=CCc1cc(OCCC(C)C)ccc1O [4c{5}, 2-allyl-4-(3-methyl-butoxy) phenol]",None
11,"C=CCc1cccc(OC)c1OCC [5a{2, 1}]",Trace
12,"C=CCc1cccc(OC)c1OCCC [5a{3, 1}]",+ broad
13,"C=CCc1cccc(OCC)c1OCCC [5a{3, 2}]",+ broad
14,"C=CCc1cccc(OC)c1OCCCC [5a{4, 1}]",None
15,"C=CCc1cccc(OCCC)c1OCCCC [5a{4, 3}]",None
16,"C=CCc1cccc(OC)c1OCCC(C)C [5a{5, 1}]",Trace
17,"C=CCc1cccc(OCC)c1OCCC(C)C [5a{5, 2}]",None
18,"C=CCc1cccc(OCCC)c1OCCC(C)C [5a{5, 3}]",None
19,"C=CCc1cccc(OCCCC)c1OCCC(C)C [5a{5, 4}]",None
20,"C=CCOc1cccc(CC=C)c1OCCC(C)C [5a{5, 6}]",None
21,"COc1ccc2c(c1)CC(C)O2 (centres unmarked) [6c{1}, 5-methoxy-2-methyl-2,3-dihydro benzofuran]",+ sharp
22,"CCOc1ccc2c(c1)CC(C)O2 (centres unmarked) [6c{2}, 5-ethoxy-2-methyl-2,3-dihydro benzofuran]",Trace
23,"CCCOc1ccc2c(c1)CC(C)O2 (centres unmarked) [6c{3}, 5-propoxy-2-methyl-2,3-dihydro benzofuran]",Trace
24,"CCCCOc1ccc2c(c1)CC(C)O2 (centres unmarked) [6c{4}, 5-butoxy-2-methyl-2,3-dihydro benzofuran]",None
25,"CC(C)CCOc1ccc2c(c1)CC(C)O2 (centres unmarked) [6c{5}, 5-(3-methyl-butoxy)-2-methyl-2,3-dihydro benzofuran]",None
